Test results from ChEMBL document CHEMBL5236585, “Design, synthesis and antifungal activities of novel triazole derivatives with selenium-containing hydrophobic side chains” (Bioorg Med Chem Lett, 2022).
Values after ≈ are worked out from the molar mass of the structure shown.

What was measured:
Candida albicans [1] = assay: Antifungal activity against Candida albicans CPCC 400616 assessed as inhibition of fungal growth by microdilution method; assay type: functional
Candida albicans [2] = assay: Antifungal activity against Candida albicans ATCC SC5314 assessed as inhibition of fungal growth by microdilution method; assay type: functional
Nakaseomyces glabratus = assay: Antifungal activity against clinical isolate Candida glabrata assessed as inhibition of fungal growth by microdilution method; assay type: functional
Candida parapsilosis = assay: Antifungal activity against Candida parapsilosis 22019 assessed as inhibition of fungal growth by microdilution method; assay type: functional; details: Lodderomyces parapsilosis
Pichia kudriavzevii = assay: Antifungal activity against Candida krusei AS 2.1045 assessed as inhibition of fungal growth by microdilution method; assay type: functional
Candida tropicalis = assay: Antifungal activity against Candida tropicalis CGMCC 2.3739 assessed as inhibition of fungal growth by microdilution method; assay type: functional
Cryptococcus neoformans = assay: Antifungal activity against Cryptococcus neoformans CGMCC 2.3161 assessed as inhibition of fungal growth by microdilution method; assay type: functional
Aspergillus fumigatus = assay: Antifungal activity against Aspergillus fumigatus CGMCC 3.7795 assessed as inhibition of fungal growth by microdilution method; assay type: functional
[3] = biological target: T1, Lanosterol 14-alpha demethylase (Candida albicans (strain SC5314 / ATCC MYA-2876) (Yeast), UniProt P10613); assay: Inhibition of CYP51 in Candida albicans SC5314 assessed as ergosterol level at 1 ug/ml by GC-MS analysis (reference value: 98.3 %); parameters: scale not given: the % may be the effect or the level left; details: at 1 µg/mL
T1 sequence (P10613 whole entry): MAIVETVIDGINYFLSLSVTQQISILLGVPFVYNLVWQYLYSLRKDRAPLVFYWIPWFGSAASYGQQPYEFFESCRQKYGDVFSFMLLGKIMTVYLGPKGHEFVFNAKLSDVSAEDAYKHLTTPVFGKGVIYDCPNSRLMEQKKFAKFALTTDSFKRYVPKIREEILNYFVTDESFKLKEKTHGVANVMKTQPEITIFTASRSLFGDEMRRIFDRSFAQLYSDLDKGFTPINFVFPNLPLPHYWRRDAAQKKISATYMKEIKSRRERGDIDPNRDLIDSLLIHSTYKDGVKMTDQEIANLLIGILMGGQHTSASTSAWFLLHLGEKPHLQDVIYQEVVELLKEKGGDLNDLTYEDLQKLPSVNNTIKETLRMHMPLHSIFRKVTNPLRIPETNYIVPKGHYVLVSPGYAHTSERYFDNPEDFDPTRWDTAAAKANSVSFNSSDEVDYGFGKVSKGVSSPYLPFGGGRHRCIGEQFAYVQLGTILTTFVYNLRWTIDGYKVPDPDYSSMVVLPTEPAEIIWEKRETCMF

[4] = biological target: T1, Lanosterol 14-alpha demethylase; assay: Inhibition of CYP51 in Candida albicans SC5314 assessed as ergosterol level at 2 ug/ml by GC-MS analysis (reference value: 98.3 %); parameters: scale not given: the % may be the effect or the level left; details: at 2 µg/mL
[5] = biological target: T1, Lanosterol 14-alpha demethylase; assay: Inhibition of CYP51 in Candida albicans SC5314 assessed as ergosterol level at 4 ug/ml by GC-MS analysis (reference value: 98.3 %); parameters: scale not given: the % may be the effect or the level left; details: at 4 µg/mL
[6] = biological target: T1, Lanosterol 14-alpha demethylase; assay: Inhibition of CYP51 in Candida albicans SC5314 assessed as ergosterol level at 8 ug/ml by GC-MS analysis (reference value: 98.3 %); parameters: scale not given: the % may be the effect or the level left; details: at 8 µg/mL
[7] = biological target: T1, Lanosterol 14-alpha demethylase; assay: Inhibition of CYP51 in Candida albicans SC5314 assessed as obtusifoliol level at 1 ug/ml by GC-MS analysis (reference value: 0 %); parameters: scale not given: the % may be the effect or the level left; details: at 1 µg/mL
[8] = biological target: T1, Lanosterol 14-alpha demethylase; assay: Inhibition of CYP51 in Candida albicans SC5314 assessed as obtusifoliol level at 2 ug/ml by GC-MS analysis (reference value: 0 %); parameters: scale not given: the % may be the effect or the level left; details: at 2 µg/mL
[9] = biological target: T1, Lanosterol 14-alpha demethylase; assay: Inhibition of CYP51 in Candida albicans SC5314 assessed as obtusifoliol level at 4 ug/ml by GC-MS analysis (reference value: 0 %); parameters: scale not given: the % may be the effect or the level left; details: at 4 µg/mL
[10] = biological target: T1, Lanosterol 14-alpha demethylase; assay: Inhibition of CYP51 in Candida albicans SC5314 assessed as obtusifoliol level at 8 ug/ml by GC-MS analysis (reference value: 0 %); parameters: scale not given: the % may be the effect or the level left; details: at 8 µg/mL
[11] = biological target: T1, Lanosterol 14-alpha demethylase; assay: Inhibition of CYP51 in Candida albicans SC5314 assessed as lanosterol level at 1 ug/ml by GC-MS analysis (reference value: 1.7 %); parameters: scale not given: the % may be the effect or the level left; details: at 1 µg/mL
[12] = biological target: T1, Lanosterol 14-alpha demethylase; assay: Inhibition of CYP51 in Candida albicans SC5314 assessed as lanosterol level at 2 ug/ml by GC-MS analysis (reference value: 1.7 %); parameters: scale not given: the % may be the effect or the level left; details: at 2 µg/mL
[13] = biological target: T1, Lanosterol 14-alpha demethylase; assay: Inhibition of CYP51 in Candida albicans SC5314 assessed as lanosterol level at 4 ug/ml by GC-MS analysis (reference value: 1.7 %); parameters: scale not given: the % may be the effect or the level left; details: at 4 µg/mL
[14] = biological target: T1, Lanosterol 14-alpha demethylase; assay: Inhibition of CYP51 in Candida albicans SC5314 assessed as lanosterol level at 8 ug/ml by GC-MS analysis (reference value: 1.7 %); parameters: scale not given: the % may be the effect or the level left; details: at 8 µg/mL
[15] = biological target: T1, Lanosterol 14-alpha demethylase; assay: Inhibition of CYP51 in Candida albicans SC5314 assessed as eburicol level at 1 ug/ml by GC-MS analysis (reference value: 0 %); parameters: scale not given: the % may be the effect or the level left; details: at 1 µg/mL
[16] = biological target: T1, Lanosterol 14-alpha demethylase; assay: Inhibition of CYP51 in Candida albicans SC5314 assessed as eburicol level at 2 ug/ml by GC-MS analysis (reference value: 0 %); parameters: scale not given: the % may be the effect or the level left; details: at 2 µg/mL
[17] = biological target: T1, Lanosterol 14-alpha demethylase; assay: Inhibition of CYP51 in Candida albicans SC5314 assessed as eburicol level at 4 ug/ml by GC-MS analysis (reference value: 0 %); parameters: scale not given: the % may be the effect or the level left; details: at 4 µg/mL
[18] = biological target: T1, Lanosterol 14-alpha demethylase; assay: Inhibition of CYP51 in Candida albicans SC5314 assessed as eburicol level at 8 ug/ml by GC-MS analysis (reference value: 0 %); parameters: scale not given: the % may be the effect or the level left; details: at 8 µg/mL
HL-60 = assay: Cytotoxicity against human HL-60 cells assessed as inhibition of cell growth by MTT assay; assay type: functional, cell-based
MDA-MB-231 = assay: Cytotoxicity against human MDA-MB-231 cells assessed as inhibition of cell growth by MTT assay; assay type: functional, cell-based
PC-3 = assay: Cytotoxicity against human PC-3 cells assessed as inhibition of cell growth by MTT assay; assay type: functional, cell-based
Candida albicans [19] = assay: Antifungal activity against Candida albicans CPCC 400616 assessed as inhibition of fungal growth; assay type: functional
Candida albicans [20] = assay: Antifungal activity against Candida albicans ATCC SC5314 assessed as inhibition of fungal growth; assay type: functional
[21] = biological target: T1, Lanosterol 14-alpha demethylase; assay: Inhibition of CYP51 in Candida albicans SC5314 assessed as ergosterol level at 16 ug/ml by GC-MS analysis (reference value: 98.3 %); parameters: scale not given: the % may be the effect or the level left; details: at 16 µg/mL
[22] = biological target: T1, Lanosterol 14-alpha demethylase; assay: Inhibition of CYP51 in Candida albicans SC5314 assessed as ergosterol level at 32 ug/ml by GC-MS analysis (reference value: 98.3 %); parameters: scale not given: the % may be the effect or the level left; details: at 32 µg/mL
[23] = biological target: T1, Lanosterol 14-alpha demethylase; assay: Inhibition of CYP51 in Candida albicans SC5314 assessed as ergosterol level at 64 ug/ml by GC-MS analysis (reference value: 98.3 %); parameters: scale not given: the % may be the effect or the level left; details: at 64 µg/mL
[24] = biological target: T1, Lanosterol 14-alpha demethylase; assay: Inhibition of CYP51 in Candida albicans SC5314 assessed as obtusifoliol level at 16 ug/ml by GC-MS analysis (reference value: 0 %); parameters: scale not given: the % may be the effect or the level left; details: at 16 µg/mL
[25] = biological target: T1, Lanosterol 14-alpha demethylase; assay: Inhibition of CYP51 in Candida albicans SC5314 assessed as obtusifoliol level at 32 ug/ml by GC-MS analysis (reference value: 0 %); parameters: scale not given: the % may be the effect or the level left; details: at 32 µg/mL
[26] = biological target: T1, Lanosterol 14-alpha demethylase; assay: Inhibition of CYP51 in Candida albicans SC5314 assessed as obtusifoliol level at 64 ug/ml by GC-MS analysis (reference value: 0 %); parameters: scale not given: the % may be the effect or the level left; details: at 64 µg/mL
[27] = biological target: T1, Lanosterol 14-alpha demethylase; assay: Inhibition of CYP51 in Candida albicans SC5314 assessed as lanosterol level at 16 ug/ml by GC-MS analysis (reference value: 1.7 %); parameters: scale not given: the % may be the effect or the level left; details: at 16 µg/mL
[28] = biological target: T1, Lanosterol 14-alpha demethylase; assay: Inhibition of CYP51 in Candida albicans SC5314 assessed as lanosterol level at 32 ug/ml by GC-MS analysis (reference value: 1.7 %); parameters: scale not given: the % may be the effect or the level left; details: at 32 µg/mL
[29] = biological target: T1, Lanosterol 14-alpha demethylase; assay: Inhibition of CYP51 in Candida albicans SC5314 assessed as lanosterol level at 64 ug/ml by GC-MS analysis (reference value: 1.7 %); parameters: scale not given: the % may be the effect or the level left; details: at 64 µg/mL
[30] = biological target: T1, Lanosterol 14-alpha demethylase; assay: Inhibition of CYP51 in Candida albicans SC5314 assessed as eburicol level at 16 ug/ml by GC-MS analysis (reference value: 0 %); parameters: scale not given: the % may be the effect or the level left; details: at 16 µg/mL
[31] = biological target: T1, Lanosterol 14-alpha demethylase; assay: Inhibition of CYP51 in Candida albicans SC5314 assessed as eburicol level at 32 ug/ml by GC-MS analysis (reference value: 0 %); parameters: scale not given: the % may be the effect or the level left; details: at 32 µg/mL
[32] = biological target: T1, Lanosterol 14-alpha demethylase; assay: Inhibition of CYP51 in Candida albicans SC5314 assessed as eburicol level at 64 ug/ml by GC-MS analysis (reference value: 0 %); parameters: scale not given: the % may be the effect or the level left; details: at 64 µg/mL

Row | SMILES | MIC (Candida albicans [1]) | MIC (Candida albicans [2]) | MIC (Nakaseomyces glabratus) | MIC (Candida parapsilosis) | MIC (Pichia kudriavzevii) | MIC (Candida tropicalis) | MIC (Cryptococcus neoformans) | MIC (Aspergillus fumigatus) | Activity [3] | Activity [4] | Activity [5] | Activity [6] | Activity [7] | Activity [8] | Activity [10] | Activity [14] | Activity [18] | IC50 (HL-60) | IC50 (MDA-MB-231) | IC50 (PC-3) | further results
1 | COc1ccc([Se]CC(O)(Cn2cncn2)c2ccc(F)cc2F)cc1 (configuration not stated) | 0.25 mg/L | 0.02 mg/L | 0.5 mg/L | 0.125 mg/L | 0.5 mg/L | 0.125 mg/L | 0.03 mg/L | 16 mg/L | 4.3% | 3.6% | 1.4% | 0.38% | 10.1% | 10.8% | 11.8% | 19.3% | 65.7% | 12.1 µM | 18.8 µM | 26.7 µM | Activity [9]: 11.2%; Activity [11]: 18.4%; Activity [12]: 18.2%; Activity [13]: 19.1%; Activity [15]: 64.3%; Activity [16]: 64.7%; Activity [17]: 64.5%
2 | Cc1ccccc1[Se]C(Cn1ccnc1)c1ccc(Cl)cc1 (configuration not stated) | – | – | – | – | – | – | – | – | – | – | – | – | – | – | – | – | – | – | – | – | MFC (Candida albicans [19]): 0.25 mg/L (≈ 0.665 µM); MIC (Candida albicans [19]): 0.02 mg/L (≈ 0.0532 µM); MIC (Candida albicans [20]): 0.03 mg/L (≈ 0.0798 µM)
3 | OC(C[Se]Cc1ccccc1Br)(Cn1cncn1)c1ccc(F)cc1F (configuration not stated) | 0.25 mg/L | 0.01 mg/L | 4 mg/L | 0.125 mg/L | 0.25 mg/L | 0.25 mg/L | 1 mg/L | 2 mg/L | – | – | – | 3.5% | – | – | 11.1% | 19.2% | 66.2% | 18.4 µM | 17.9 µM | 15.6 µM | Activity [21]: 2.1%; Activity [22]: 0.48%; Activity [23]: 0.18%; Activity [24]: 11.3%; Activity [25]: 9.28%; Activity [26]: 11.9%; Activity [27]: 20.3%; Activity [28]: 21.1%; Activity [29]: 19.6%; Activity [30]: 66.7%; Activity [31]: 69.2%; Activity [32]: 69.3%
4 | OC(Cn1cncn1)(Cn1cncn1)c1ccc(F)cc1F [FLUCONAZOLE] | – | – | – | – | – | 4 mg/L | – | – | 3.9% | 2.5% | 1.5% | 1.1% | 13.9% | 13.1% | 14.1% | 14.9% | 69.9% | 11.6 µM | 19.2 µM | 16.5 µM | Activity [9]: 13.5%; Activity [11]: 14.3%; Activity [12]: 15.7%; Activity [13]: 15.4%; Activity [15]: 67.9%; Activity [16]: 68.7%; Activity [17]: 69.6%
